How the values were obtained:
human H3 receptor = target: T1, human H3 receptor (Homo sapiens, UniProt Q9Y5N1); assay: H3 receptor binding (N-[3H]-α-methylhistamine displacement); conditions: membranes of SK-N-MC cells expressing cloned human H3 receptor, 0.8 nM N-[3H]-α-methylhistamine, 60 min at 25° C.
T1 construct: expressed in transfected cells
Experimental: Briefly, cell pellets from SK-N-MC cells expressing the human H3 receptor were homogenized in 50 mM Tris-HCl/5 mM EDTA and re-centrifuged at 30,000 g for 30 min. Pellets were re-homogenized in 50 mM Tris/6 mM EDTA (pH 7.4). Membranes were incubated with 0.8 nM N-[^3H]-α-methylhistamine plus/minus test compounds for 60 min at 25° C. and harvested by rapid filtration over GF/C glass fiber filters (pretreated with 0.3% polyethylenimine) followed by four washes with ice-cold buffer. Nonspecific binding was defined in the presence of 10 μM histamine.

Rat SERT = target: T2, Rat SERT (Rattus norvegicus, UniProt P31652); assay: Rat brain SERT binding ([3H]-citalopram displacement); conditions: rat brain membranes without cerebellum, 0.6 nM [3H]-citalopram, 60 min at 25° C.; read-out: Rat SERT Ki
T2 construct: A rat brain without cerebellum (Zivic Laboratories, Inc.—Pittsburgh, Pa.) was homogenized; tissue Zivic Laboratories, Inc; host or cells: rat brain without cerebellum, membranes
Experimental: The supernatant was removed and re-centrifuged at 15,000 rpm for 30 min. […] Membranes were incubated with 0.6 nM [^3H]-Citalopram plus/minus test compounds for 60 min at 25° C. and harvested by rapid filtration over GF/C glass fiber filters (pretreated with 0.3% polyethylenimine) followed by four washes with ice-cold buffer.

T2 sequence (P31652 whole entry): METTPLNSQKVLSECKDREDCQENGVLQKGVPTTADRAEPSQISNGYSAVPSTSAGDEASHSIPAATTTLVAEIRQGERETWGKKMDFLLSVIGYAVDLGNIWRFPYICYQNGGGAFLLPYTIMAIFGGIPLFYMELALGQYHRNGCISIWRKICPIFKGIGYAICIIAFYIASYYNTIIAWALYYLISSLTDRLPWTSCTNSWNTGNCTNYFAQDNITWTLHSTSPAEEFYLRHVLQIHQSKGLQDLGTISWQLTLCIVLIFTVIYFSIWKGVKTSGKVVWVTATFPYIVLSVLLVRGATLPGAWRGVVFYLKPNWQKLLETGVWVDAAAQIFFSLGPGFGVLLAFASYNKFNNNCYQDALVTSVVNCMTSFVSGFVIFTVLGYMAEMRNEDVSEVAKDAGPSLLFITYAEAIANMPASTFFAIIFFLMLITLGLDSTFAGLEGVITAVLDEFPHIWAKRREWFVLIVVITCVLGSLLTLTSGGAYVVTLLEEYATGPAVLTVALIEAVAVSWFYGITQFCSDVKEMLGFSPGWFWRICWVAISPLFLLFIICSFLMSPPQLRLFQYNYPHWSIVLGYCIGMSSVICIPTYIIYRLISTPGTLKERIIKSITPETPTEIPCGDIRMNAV
T1 sequence (Q9Y5N1 whole entry): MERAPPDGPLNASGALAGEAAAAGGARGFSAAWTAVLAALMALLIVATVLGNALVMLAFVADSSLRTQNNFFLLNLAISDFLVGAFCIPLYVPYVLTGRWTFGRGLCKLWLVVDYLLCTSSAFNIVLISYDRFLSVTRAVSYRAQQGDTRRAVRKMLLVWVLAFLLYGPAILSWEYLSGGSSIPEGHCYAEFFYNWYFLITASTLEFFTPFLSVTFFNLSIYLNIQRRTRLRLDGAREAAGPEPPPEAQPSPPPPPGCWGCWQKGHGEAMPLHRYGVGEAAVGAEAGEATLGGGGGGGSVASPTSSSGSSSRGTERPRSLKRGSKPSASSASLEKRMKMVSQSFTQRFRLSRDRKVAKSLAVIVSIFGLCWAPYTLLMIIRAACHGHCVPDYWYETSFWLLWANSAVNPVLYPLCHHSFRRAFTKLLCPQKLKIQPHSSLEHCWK

Row | Ki (human H3 receptor) [nM] | Ki (Rat SERT) [nM] | SMILES
1 | 2 | 15 | CCN1CCC(COc2ccc3c(c2)CN(C)CC3c2cccc(OC)c2)CC1 (stereo not drawn) [Example 95, 7-(1-Ethyl-piperidin-4-ylmethoxy)-4-(3-methoxy-phenyl)-2-methyl-1,2,3,4-tetrahydro-isoquinoline]
2 | 14 | 79 | COc1ccc(C2CN([C@H](C)c3ccccc3)Cc3cc(OCCCN4CCOCC4)ccc32)cc1 (single isomer, unassigned) [Example 75, 4-(4-Methoxy-phenyl)-7-(3-morpholin-4-yl-propoxy)-2-(1-phenyl-ethyl)-1,2,3,4-tetrahydro-isoquinoline]
3 | 0.5 | 104 | CCCN1Cc2cc(OCCCN3CCCCC3)ccc2C(c2ccc(OC)cc2)C1 (stereo not drawn) [Example 67, 4-(4-Methoxy-phenyl)-7-(3-piperidin-1-yl-propoxy)-2-propyl-1,2,3,4-tetrahydro-isoquinoline]
4 | 3 | 29 | COc1ccc(C2CN(C)Cc3cc(OC[C@@H]4CN(C5CC5)CCO4)ccc32)cc1 (mixture of isomers) [Example 260, 7-(4-Cyclopropyl-morpholin-2S-ylmethoxy)-4-(4-methoxy-phenyl)-2-methyl-1,2,3,4-tetrahydro-isoquinoline]
5 | 3 | 10 | CSc1ccc(C2CN(C)Cc3cc(OC4CCN(C5CCOCC5)CC4)ccc32)cc1 (stereo not drawn) [Example 246, 2-Methyl-4-(4-methylsulfanyl-phenyl)-7-[1-(tetrahydro-pyran-4-yl)-piperidin-4-yloxy]-1,2,3,4-tetrahydro-isoquinoline]
6 | 3 | 2 | COc1ccc(C2CN(C)Cc3cc(OCCC4CCCN4C)ccc32)cc1 (single isomer, unassigned) [Example 240A, 4-(4-Methoxy-phenyl)-2-methyl-7-[2-(1-methyl-pyrrolidin-2-yl)-ethoxy]-1,2,3,4-tetrahydro-isoquinoline]
7 | 1 | 10 | COc1ccc(C2CN(C)Cc3cc(OC4CCN(C(C)C)CC4)ccc32)cc1F (stereo not drawn) [Example 120, 4-(3-Fluoro-4-methoxy-phenyl)-7-(1-isopropyl-piperidin-4-yloxy)-2-methyl-1,2,3,4-tetrahydro-isoquinoline]
8 | 2 | 1 | COc1ccc(C2CN(C)Cc3cc(OCCCN4CCOC(CO)C4)ccc32)cc1 (stereo not drawn) [Example 184, (4-{3-[4-(4-Methoxy-phenyl)-2-methyl-1,2,3,4-tetrahydro-isoquinolin-7-yloxy]-propyl}-morpholin-2-yl)-methanol]
9 | 42 | 58 | CN1Cc2cc(OCCCN3CCC(F)CC3)ccc2C(c2ccc(SC(F)(F)F)cc2)C1 (stereo not drawn) [Example 217, 7-[3-(4-Fluoro-piperidin-1-yl)-propoxy]-2-methyl-4-(4-trifluoromethylsulfanyl-phenyl)-1,2,3,4-tetrahydro-isoquinoline]
10 | 5 | 3 | CSc1ccc(C2CN(C)Cc3cc(OCCCN4CCC(F)CC4)ccc32)cn1 (stereo not drawn) [Example 187, 7-[3-(4-Fluoro-piperidin-1-yl)-propoxy]-2-methyl-4-(6-methylsulfanyl-pyridin-3-yl)-1,2,3,4-tetrahydro-isoquinoline]
11 | 4 | 15 | COc1cccc(C2CN(C)Cc3cc(OCC4CCN(C5CCCC5)CC4)ccc32)c1 (stereo not drawn) [Example 94, 7-(1-Cyclopentyl-piperidin-4-ylmethoxy)-4-(3-methoxy-phenyl)-2-methyl-1,2,3,4-tetrahydro-isoquinoline]
12 | 29 | 26 | COc1ccc(C2CN(C)Cc3cc(OC[C@@H]4CN(C5CC5)CCO4)ccc32)cc1 (single isomer, unassigned) [Example 260B, 7-(4-Cyclopropyl-morpholin-2S-ylmethoxy)-4-(4-methoxy-phenyl)-2-methyl-1,2,3,4-tetrahydro-isoquinoline]
13 | 372 | 26 | COc1ccc(C2CN(C)Cc3cc(OCC4CCN(C(=O)C(F)(F)F)CC4)ccc32)cc1 (stereo not drawn) [Example 122, 2,2,2-Trifluoro-1-{4-[4-(4-methoxy-phenyl)-2-methyl-1,2,3,4-tetrahydro-isoquinolin-7-yloxymethyl]-piperidin-1-yl}-ethanone]
14 | 263 | 2 | COc1ccc(C2CN(C)Cc3cc(OC[C@H]4CNCCO4)ccc32)cc1 (stereo partly drawn) [Example 253, 4-(4-Methoxy-phenyl)-2-methyl-7-(morpholin-2R-ylmethoxy)-1,2,3,4-tetrahydro-isoquinoline]
15 | 5 | 10 | CCN1CCC(COc2ccc3c(c2)CN(C)CC3c2ccc(OC)c(Cl)c2)CC1 (stereo not drawn) [Example 107, 4-(3-Chloro-4-methoxy-phenyl)-7-(1-ethyl-piperidin-4-ylmethoxy)-2-methyl-1,2,3,4-tetrahydro-isoquinoline]
16 | 2 | 50 | C[C@H]1COCCN1CCCOc1ccc2c(c1)CN(C)CC2c1ccc(N2CCOCC2)cc1 (stereo partly drawn) [Example 133, 2-Methyl-7-[3-(3S-methyl-morpholin-4-yl)-propoxy]-4-(4-morpholin-4-yl-phenyl)-1,2,3,4-tetrahydro-isoquinoline]
17 | 61 | 2 | CCCNCCCOc1ccc2c(c1)CN(C)CC2c1ccc(OC)cc1 (stereo not drawn) [Example 231, {3-[4-(4-Methoxy-phenyl)-2-methyl-1,2,3,4-tetrahydro-isoquinolin-7-yloxy]-propyl}-propyl-amine]
18 | 1 | 7 | CN1Cc2cc(OCCCN3CCC(F)CC3)ccc2C(c2ccc(-n3cccn3)nc2)C1 (stereo not drawn) [Example 194, 7-[3-(4-Fluoro-piperidin-1-yl)-propoxy]-2-methyl-4-(6-pyrazol-1-yl-pyridin-3-yl)-1,2,3,4-tetrahydro-isoquinoline]
19 | 499 | 11 | COc1ccc(C2CN(C)Cc3cc(OCCCN=C4N(C)CCCN4C)ccc32)cc1 (stereo not drawn) [Example 15, (1,3-Dimethyl-tetrahydro-pyrimidin-2-ylidene)-{3-[4-(4-methoxy-phenyl)-2-methyl-1,2,3,4-tetrahydro-isoquinolin-7-yloxy]-propyl}-amine]
20 | 7 | 2000 | COc1ccc(C2CN(C(C)c3ccccc3)Cc3cc(OCCCN4CCOCC4)ccc32)cc1 (single isomer, unassigned) [Example 75A, 4-(4-Methoxy-phenyl)-7-(3-morpholin-4-yl-propoxy)-2-(1-phenyl-ethyl)-1,2,3,4-tetrahydro-isoquinoline]
21 | 85 | 9 | COc1ccc(C2CN(C)Cc3cc(OCCCNC(C4CC4)C4CC4)ccc32)cc1 (stereo not drawn) [Example 131, Dicyclopropylmethyl-{3-[4-(4-methoxy-phenyl)-2-methyl-1,2,3,4-tetrahydro-isoquinolin-7-yloxy]-propyl}-amine]
22 | 12 | 40 | CN1Cc2cc(OCCCN3CCC(F)CC3)ccc2C(c2cccc(OC(F)(F)F)c2)C1 (stereo not drawn) [Example 128, 7-[3-(4-Fluoro-piperidin-1-yl)-propoxy]-2-methyl-4-(3-trifluoromethoxy-phenyl)-1,2,3,4-tetrahydro-isoquinoline]
23 | 62 | 32 | COc1ccc(C2CN(C)Cc3cc(OC[C@H]4CN(C5CC5)CCO4)ccc32)cc1 (mixture of isomers) [Example 261, 7-(4-Cyclopropyl-morpholin-2R-ylmethoxy)-4-(4-methoxy-phenyl)-2-methyl-1,2,3,4-tetrahydro-isoquinoline]
24 | 4 | 3 | COc1ccc(C2CN(C)Cc3cc(OCCCN(C)C(C)C)ccc32)cc1 (stereo not drawn) [Example 233, Isopropyl-{3-[4-(4-methoxy-phenyl)-2-methyl-1,2,3,4-tetrahydro-isoquinolin-7-yloxy]-propyl}-methyl-amine]
25 | 2 | 5 | COc1ccc(C2CN(C)Cc3cc(OCC4CCN(C(C)C)CC4)ccc32)cc1F (stereo not drawn) [Example 89, 4-(3-Fluoro-4-methoxy-phenyl)-7-(1-isopropyl-piperidin-4-ylmethoxy)-2-methyl-1,2,3,4-tetrahydro-isoquinoline]
26 | 14 | 31 | COc1ccc(C2CN(C)Cc3cc(OCCCN4CCOCC4)c(C)cc32)cc1 (stereo not drawn) [Example 266, 4-(4-Methoxy-phenyl)-2,6-dimethyl-7-(3-morpholin-4-yl-propoxy)-1,2,3,4-tetrahydro-isoquinoline]
27 | 4 | 6 | COc1ccc(C2CN(C)Cc3cc(OCC4CCN(C5CC5)CC4)ccc32)cc1 (stereo not drawn) [Example 249, 7-(1-Cyclopropyl-piperidin-4-ylmethoxy)-4-(4-methoxy-phenyl)-2-methyl-1,2,3,4-tetrahydro-isoquinoline]
28 | 134 | 4 | COc1ccc(C2CN(C)Cc3cc(OCCCN4CCN(Cc5cccs5)CC4)ccc32)cc1 (stereo not drawn) [Example 201, 4-(4-Methoxy-phenyl)-2-methyl-7-[3-(4-thiophen-2-ylmethyl-piperazin-1-yl)-propoxy]-1,2,3,4-tetrahydro-isoquinoline]
29 | 64 | 6 | COc1ccc(C2CN(C)Cc3cc(OCC4CCNCC4)ccc32)c(F)c1 (stereo not drawn) [Example 82, 4-(2-Fluoro-4-methoxy-phenyl)-2-methyl-7-(piperidin-4-ylmethoxy)-1,2,3,4-tetrahydro-isoquinoline]
30 | 1 | 9 | COc1ccc(C2CN(C)Cc3cc(OC4CCN(C(C)C)CC4)ccc32)c(F)c1 (stereo not drawn) [Example 119, 4-(2-Fluoro-4-methoxy-phenyl)-7-(1-isopropyl-piperidin-4-yloxy)-2-methyl-1,2,3,4-tetrahydro-isoquinoline]
